From patent US6187802A, “Substituted 4-arylmethylene-2-imino-2,3-dihydrothiazoles and derivatives and their pharmaceutical use” (Knoll Aktiengesellschaft, priority 1997, dated 2001)
Where a name gives a salt, the structure may show the parent alone.

How the values were obtained:
[1] = target: T1, noradrenaline (NA) reuptake sites (Rattus norvegicus, UniProt Q63380); assay: displacement of [3H]nisoxetine from noradrenaline reuptake sites, frontal cortical membranes; details: 10^-6 M test compound, [3H]nisoxetine 0.6 nM, one test only, read-out: NA uptake (% displacement of specific binding of tritiated ligand)
T1 construct: Frontal cortical tissue from the brains of male Sprague-Dawley rats; from tissue; host or cells: rat brain frontal cortex (crude synaptosomes in A3, washed membranes in A6)
T1 sequence (Q63380 1-617): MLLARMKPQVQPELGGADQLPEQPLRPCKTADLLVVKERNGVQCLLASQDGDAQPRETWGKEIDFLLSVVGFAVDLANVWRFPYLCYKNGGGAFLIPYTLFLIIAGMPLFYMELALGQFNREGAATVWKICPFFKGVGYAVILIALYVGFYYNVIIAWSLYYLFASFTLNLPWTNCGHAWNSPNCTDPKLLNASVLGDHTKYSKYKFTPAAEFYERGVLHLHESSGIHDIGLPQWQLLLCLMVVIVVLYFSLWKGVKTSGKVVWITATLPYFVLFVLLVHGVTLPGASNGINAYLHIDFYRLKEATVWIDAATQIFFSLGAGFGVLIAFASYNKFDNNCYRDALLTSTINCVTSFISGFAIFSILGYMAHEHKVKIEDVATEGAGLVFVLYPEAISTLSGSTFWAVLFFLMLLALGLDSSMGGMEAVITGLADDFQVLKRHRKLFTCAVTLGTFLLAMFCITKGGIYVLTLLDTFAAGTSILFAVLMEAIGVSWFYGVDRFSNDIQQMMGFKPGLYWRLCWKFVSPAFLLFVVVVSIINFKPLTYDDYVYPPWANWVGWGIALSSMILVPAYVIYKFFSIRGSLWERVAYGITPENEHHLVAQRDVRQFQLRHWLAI
Procedure: Frontal cortical tissue from the brains of male Charles River rats weighing 150-250 g was homogenised in ice-cold 50 mM Tris-HCl, pH 7.4 (at 25° C.) containing 120 mM sodium chloride and 5 mM potassium chloride (Tris buffer; 1:60 w/v) using a Kinematic polytron (speed setting 6 for 30 seconds) and centrifuged at 40,000 g for 10 minutes. The supernatant was discarded and the pellet rehomogenised in Tris buffer, 1:60 w/v, and centrifuged at 40,000 g for 10 minutes. This step was repeated twice more so that, in total, the brain tissue was homogenised and centrifuged four times. The final pellet was resuspended in 50 mM Tris-HCl, pH 7.4 containing 300 mM sodium chloride and 5 mM potassium chloride (equivalent to 25 mg wet weight of tissue/ml) and used immediately in the binding assay. All centrifugations were performed at 4° C.
Membranes (400 μl; equivalent to 10 mg wet weight of tissue/tube) were incubated with 50 μl [^3 H]nisoxetine at a single concentration of 0.6 nM and 50 μl of distilled water (total binding) or 50 μl of test compound (10^-6 M) or 50 μl of mazindol (1 μM; non-specific binding) for 4 h at 4° C.
Membrane bound radioactivity was recovered by filtration under vacuum through Skatron 11734 filters using a Skatron cell harvester. Filters were rapidly washed with ice-cold 50 mM Tris-HCl, pH 7.4 containing 120 mM sodium chloride and 5 mM potassium chloride (wash setting 9,9,0) and radioactivity determined by liquid scintillation counting (1 ml Packard MV Gold scintillator).
(§1) For each of these tests measuring the ability of compounds of Formula I to displace standard ligands from dopamine (DA), 5-hydroxytryptamine (5-HT) and noradrenaline (NA) reuptake sites in vitro, the percentage displacement of specific binding of tritiated ligand by 10^-6 M test compound was calculated in the following way:
(§2) Firstly, specific binding of tritiated ligand in the absence (A) and presence (B) of test compound was determined:
(§3) In the absence of compound:
(§4) A (dpm)=Total binding (dpm)-Non-specific binding (dpm)
(§5) In the presence of compound (10^-6 M):
(§6) B (dpm)=Binding at 10^-6 M (dpm)-Non-specific binding (dpm)
(§7) The specific binding of tritiated ligand in the presence (B) of compound was then converted to a percentage of specific binding of tritiated ligand in the absence (A) of compound:
(§8) % Specific binding at 10^-6 M=B (dpm)/A(dpm)×100
(§9) The percentage displacement of specific binding of trtiated ligand by the test compound (10^-6 M) was then obtained by subtraction of the percentage specific binding in the presence of compound from the percentage specific binding in the absence of compound, which is taken as the maximum binding and so equals 100%:
(§10) % Displacement at 10^-6 M=100-% Specific binding at 10^-6 M.
(§11) The values given below in Table 2 for examples 6 to 76 are % displacement of specific binding of tritiated ligand by 10^-6 M test compound and represent results from one test only. IA refers to <50% displacement.

[2] = target: T2, dopamine (DA) reuptake sites (Rattus norvegicus, UniProt P23977); assay: displacement of [3H]GBR 12935 from dopamine reuptake sites, striatal membranes; assay type: binding; details: 10^-6 M test compound, [3H]GBR 12935 1 nM, one test only; for inhibition at 1 µM: read-out: DA uptake (% displacement of specific binding of tritiated ligand)
T2 construct: Striatal tissue from the brains of male Charles River rats weighing 150-250 g; from tissue; host or cells: rat brain striatum (crude synaptosomes in A1, washed membranes in A4)
T2 sequence (P23977 whole entry): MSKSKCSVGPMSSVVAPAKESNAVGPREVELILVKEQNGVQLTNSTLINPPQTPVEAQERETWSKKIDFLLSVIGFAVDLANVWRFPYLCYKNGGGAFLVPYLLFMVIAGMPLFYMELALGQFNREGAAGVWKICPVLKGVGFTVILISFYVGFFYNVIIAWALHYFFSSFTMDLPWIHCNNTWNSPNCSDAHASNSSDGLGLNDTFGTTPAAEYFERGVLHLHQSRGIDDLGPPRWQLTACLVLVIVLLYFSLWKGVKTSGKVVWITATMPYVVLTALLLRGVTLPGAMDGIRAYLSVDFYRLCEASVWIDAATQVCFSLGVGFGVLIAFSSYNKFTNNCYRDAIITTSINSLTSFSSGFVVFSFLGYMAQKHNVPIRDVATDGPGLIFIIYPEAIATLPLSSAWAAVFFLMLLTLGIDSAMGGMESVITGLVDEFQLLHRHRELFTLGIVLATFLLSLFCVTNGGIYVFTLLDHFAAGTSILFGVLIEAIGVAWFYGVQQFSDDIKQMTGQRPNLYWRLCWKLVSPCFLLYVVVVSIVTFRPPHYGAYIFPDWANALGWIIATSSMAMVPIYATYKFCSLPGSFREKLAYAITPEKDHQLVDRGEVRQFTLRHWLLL
Procedure: Striatal tissue from the brains of male Charles River rats weighing 150-250 g was homogenised in ice-cold 0.32M sucrose (1:80 w/v) using a motor driven teflon pestle (12 strokes, 800 rpm) and centrifuged at 1000 g for 12 minutes. The supernatant was stored on ice and the pellet was resuspended in 0.32M sucrose (1:80 w/v) and centrifuged at 850 g for 10 minutes. Combined supernatants were diluted to 1:320 w/v with ice-cold 50 mM Tris-HCl, pH 7.4 (at 25° C.) containing 200 mM sodium chloride and 5 mM potassium chloride (Tris buffer) and centrifuged at 40,000 g for 10 minutes. The resulting pellet was resuspended in 10 ml of 50 mM Tris buffer, incubated at 37° C. for 10 min, diluted in 50 mM Tris buffer (1:320 w/v) and recentrifuged at 40,000 g for 10 minutes. The final pellet was resuspended in 50 mM Tris buffer (equivalent to 1.25 mg wet weight of tissue/ml) and used immediately in the binding assay. All centrifugations were carried out at 4° C.
Membranes (800 μl; equivalent to 1 mg wet weight of tissue/tube) were incubated with 100 μl [^3 H]GBR 12935 at a single concentration of 1 nM and 100 μl of distilled water (total binding) or 100 μl of test compound (10^-6 M) or 100 μl of mazindol (1 μM; non-specific binding) for 90 min at 4° C.
Membrane bound radioactivity was recovered by filtration under vacuum through Whatman GF/C filters, pre-soaked for 1 h in 0.5% polyethylenimine,using a Brandel cell harvester. Filters were rapidly washed with 16 ml of ice-cold 50 mM Tris-HCl, pH 7.4 and radioactivity determined by liquid scintillation counting (2 ml Packard MV Gold scintillator).
as §1, §2, §3, §4, §5, §6, §7, §8, §9, §10, §11

[3] = target: T3, 5-hydroxytryptamine (5-HT) reuptake sites (Rattus norvegicus, UniProt P31652); assay: displacement of [3H]paroxetine from 5-HT reuptake sites, frontal cortical membranes; assay type: binding; details: 10^-6 M test compound, [3H]paroxetine 30 pM, one test only; for inhibition at 1 µM: read-out: 5-HT uptake (% displacement of specific binding of tritiated ligand)
T3 construct: Frontal cortical tissue from the brains of male Sprague-Dawley rats; from tissue; host or cells: rat brain frontal cortex (crude synaptosomes in A2, washed membranes in A5)
T3 sequence (P31652 whole entry): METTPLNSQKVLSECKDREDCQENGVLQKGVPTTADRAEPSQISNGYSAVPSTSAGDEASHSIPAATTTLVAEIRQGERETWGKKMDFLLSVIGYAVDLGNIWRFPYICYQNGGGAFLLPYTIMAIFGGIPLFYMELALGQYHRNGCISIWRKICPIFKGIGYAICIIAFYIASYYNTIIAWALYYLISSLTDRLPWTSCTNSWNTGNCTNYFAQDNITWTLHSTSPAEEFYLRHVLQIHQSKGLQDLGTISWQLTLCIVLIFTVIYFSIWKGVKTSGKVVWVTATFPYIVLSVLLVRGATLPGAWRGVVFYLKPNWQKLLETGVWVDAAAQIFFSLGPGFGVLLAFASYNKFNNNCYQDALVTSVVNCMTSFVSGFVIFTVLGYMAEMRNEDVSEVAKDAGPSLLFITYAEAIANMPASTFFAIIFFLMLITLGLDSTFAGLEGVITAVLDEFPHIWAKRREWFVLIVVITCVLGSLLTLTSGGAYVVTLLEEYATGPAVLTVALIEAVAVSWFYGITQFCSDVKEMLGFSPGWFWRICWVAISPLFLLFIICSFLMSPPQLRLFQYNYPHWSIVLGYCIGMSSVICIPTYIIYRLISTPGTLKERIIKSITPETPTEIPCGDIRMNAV
Procedure: Frontal cortical tissue from the brains of male Charles River rats weighing 150-250 g was homogenised in ice-cold 0.25M sucrose (1:30 w/v) using a Kinematic polytron (speed setting 6 for 30 seconds) and centrifuged at 1000 g for 12 minutes. The supernatant was stored on ice and the pellet was resuspended in 0.25M sucrose (1:20 w/v) and centrifuged at 850 g for 10 minutes. Combined supernatants were diluted to 1:100 w/v with ice-cold 50 mM Tris-HCl, pH 7.5 (at 25° C.) containing 120 mM sodium chloride and 5 mM potassium chloride (Tris buffer) and centrifuged at 40,000 g for 10 minutes. The resulting pellet was resuspended in 50 mM Tris buffer (1:100 w/v) and recentrifuged at 40,000 g for 10 minutes. The final pellet was resuspended in 50 mM Tris buffer (equivalent to 2 mg wet weight of tissue/ml) and used immediately in the binding assay. All centrifugations were carried out at 4° C.
Membranes (1000 μl; equivalent to 2 mg wet weight of tissue/tube) were incubated with 200 μl [^3 H]paroxetine at a single concentration of 30 pM and 200 μl of distilled water (total binding) or 200 μl of test compound (10^-6 M) or 200 μl of citalopram (1 μM; non-specific binding) for 2 h at 22° C.
Membrane bound radioactivity was recovered by filtration under vacuum through Whatman GFIC filters using a Brandel cell harvester. Filters were rapidly washed with 16 ml ice-cold 50 mM Tris buffer and radioactivity determined by liquid scintillation counting (2 ml Packard MV Gold scintillator).
as §1, §2, §3, §4, §5, §6, §7, §8, §9, §10, §11

Structure (SMILES): Clc1ccc(C2(C3=CSC4=NCCN34)CCCC2)cc1Cl [Example 6, 3-[1-(3,4-dichlorophenyl)cyclopentyl]-5,6-dihydroimidazo[2,1-b]thiazole hydrobromide]
- inhibition at 1 µM [1]: 101%
- inhibition at 1 µM [2]: 112%
- inhibition at 1 µM [3]: 86%

Structure (SMILES): Clc1ccc(C2(C3=C(Cc4ccccc4)SC4=NCCN43)CCC2)cc1 [Example 7, 2-benzyl-3-[1-(4-chlorophenyl)cyclobutyl]-5,6-dihydroimidazo[2,1-b]-thiazole hydrobromide]
- inhibition at 1 µM [1]: < 50%
- inhibition at 1 µM [2]: 69%
- inhibition at 1 µM [3]: 85%

Structure (SMILES): COCCC1=C(C2(c3ccc(Cl)c(Cl)c3)CCC2)N2CCN=C2S1 [Example 8, 3-[1-(3,4-dichlorophenyl)cyclobutyl]-2-(2-methoxyethyl)-5,6-dihydroimidazo[2,1-b]-thiazole hydrobromide]
- inhibition at 1 µM [1]: < 50%
- inhibition at 1 µM [2]: < 50%
- inhibition at 1 µM [3]: 62%

Structure (SMILES): Clc1ccc(C2(C3=C(c4ccccc4)SC4=NCCN43)CCC2)cc1Cl [Example 9, 3-[1-(3,4-dichlorophenyl)cyclobutyl]-2-phenyl-5,6-dihydroimidazo[2,1-b]thiazole hydrobromide]
- inhibition at 1 µM [1]: < 50%
- inhibition at 1 µM [2]: 60%
- inhibition at 1 µM [3]: 75%

Structure (SMILES): Clc1ccc(C2=C(C3(c4ccc(Cl)c(Cl)c4)CCC3)N3CCN=C3S2)cc1 [Example 10, 2-(4-chlorophenyl)-3-[1-(3,4-dichlorophenyl)cyclobutyl]-5,6-dihydroimidazo[2,1-b]thiazole hydrobromide]
- inhibition at 1 µM [1]: < 50%
- inhibition at 1 µM [2]: 85%
- inhibition at 1 µM [3]: 57%

Structure (SMILES): CC(C)(C1=CSC2=NCCN12)c1ccc(Cl)c(Cl)c1 [Example 11, 3-[1-(3,4-dichlorophenyl)-1-methylethyl]-5,6-dihydroimidazo[2,1-b]-thiazole hydrobromide]
- inhibition at 1 µM [1]: < 50%
- inhibition at 1 µM [2]: 102%
- inhibition at 1 µM [3]: 57%

Structure (SMILES): C1=C(C2(c3cc4ccccc4s3)CCC2)N2CCN=C2S1 [Example 12, 3-[1-(benzo[b]thiophen-2-yl)cyclobutyl]-5,6-dihydroimidazo[2,1-b]thiazole hydrobromide]
- inhibition at 1 µM [1]: 95%
- inhibition at 1 µM [2]: 121%
- inhibition at 1 µM [3]: 77%

Structure (SMILES): CN=c1scc(C2(c3ccc(Cl)c(Cl)c3)CCC2)n1C [Example 14, 4-[1-(3,4-Dichlorophenyl)cyclobutyl]-3-methyl-2-methylimino-2,3 dihydrothiazole hydrobromide]
- inhibition at 1 µM [1]: 80%
- inhibition at 1 µM [2]: 103%
- inhibition at 1 µM [3]: 96%

Structure (SMILES): CCN=c1scc(C2(c3ccc(Cl)c(Cl)c3)CCC2)n1CC [Example 15, 4-[1-(3,4-Dichlorophenyl)cyclobutyl]-3-ethyl-2-ethylimino-2,3-dihydrothiazole hydrobromide]
- inhibition at 1 µM [1]: 99%
- inhibition at 1 µM [2]: 115%
- inhibition at 1 µM [3]: 102%

Structure (SMILES): CCCN=c1scc(C2(c3ccc(Cl)c(Cl)c3)CCC2)n1CCC [Example 16, 4-[1-(3,4-Dichlorophenyl)cyclobutyl]-3-propyl-2-propylimino-2,3-dihydrothiazole hydrobromide]
- inhibition at 1 µM [1]: 56%
- inhibition at 1 µM [2]: 116%
- inhibition at 1 µM [3]: 102%

Structure (SMILES): CC(C)N=c1scc(C2(c3ccc(Cl)c(Cl)c3)CCC2)n1C(C)C [Example 17, 4-[1-(3,4-Dichlorophenyl)cyclobutyl]-3-isopropyl-2-isopropylimino-2,3-dihydrothiazole hydrobromide]
- inhibition at 1 µM [1]: 63%
- inhibition at 1 µM [2]: 112%
- inhibition at 1 µM [3]: 95%

Structure (SMILES): CCCCN=c1scc(C2(c3ccc(Cl)c(Cl)c3)CCC2)n1CCCC [Example 18, 3-Butyl-2-butylimino-4-[1-(3,4-dichlorophenyl)cyclobutyl]-2,3-dihydrothiazole hydrobromide]
- inhibition at 1 µM [1]: 63%
- inhibition at 1 µM [2]: 106%
- inhibition at 1 µM [3]: 95%

Structure (SMILES): CC(C)CN=c1scc(C2(c3ccc(Cl)c(Cl)c3)CCC2)n1CC(C)C [Example 19, 4-[1-(3,4-Dichlorophenyl)cyclobutyl]-3-isobutyl-2-isobutylimino-2,3-dihydrothiazole hydrobromide]
- inhibition at 1 µM [1]: < 50%
- inhibition at 1 µM [2]: 107%
- inhibition at 1 µM [3]: 89%

Structure (SMILES): C=CCN=c1scc(C2(c3ccc(Cl)c(Cl)c3)CCC2)n1CC=C [Example 20, 3-Allyl-2-allylimino-4-[1-(3,4-dichlorophenyl)cyclobutyl]-2,3-dihydrothiazole hydrobromide]
- inhibition at 1 µM [1]: 91%
- inhibition at 1 µM [2]: 105%
- inhibition at 1 µM [3]: 104%

Structure (SMILES): Clc1ccc(C2(c3csc(=NCC4CC4)n3CC3CC3)CCC2)cc1Cl [Example 21, 4-[1-(3,4-Dichlorophenyl)cyclobutyl]-3-cyclopropylmethyl-2-cyclopropylmethylimino-2,3-dihydrothiazole hydrobromide]
- inhibition at 1 µM [1]: 50%
- inhibition at 1 µM [2]: 108%
- inhibition at 1 µM [3]: 103%

Structure (SMILES): Br.CC(C)(C1=CSC2=NCCN12)c1ccc(Cl)c(Cl)c1 [Example 74, 3-[1-(3,4-Dichlorophenyl)-1-methylethyl]-5,6-dihydroimidazo[2,1-b]thiazole hydrobromide]
- DA uptake (% displacement of specific binding of tritiated ligand) ([2]; hydrobromide, 1 µM): 97%
- 5-HT uptake (% displacement of specific binding of tritiated ligand) ([3]; 1 µM, hydrobromide): 52%
